Assay results reported in ChEMBL document CHEMBL3507680, “University of Dundee, Gates Library screen for HepG2 cell viability”.

Test: Human HepG2 cell viability assay in 384 well format
Type: toxicity, cell-based
Design: dose 125 nL, time 70.5 hour; concentration not given beside the values
Details: HepG2 cells, read-out: Inhibition

Compound | cytotoxicity at 70.5 h
Cc1noc(CN2CCCC2c2noc(C3CC3)n2)n1 (stereo not drawn) | 20.7%
CCCc1nc(CN2CCc3c(ncn3C3CC3)C2)cs1 | -5.23%
CCc1n[nH]c(C2CN(C(=O)c3cnc(C)nc3CC)CCO2)n1 (stereo not drawn) | -8.34%
Cc1nc(C2CCCN2C(=O)Cn2cncn2)no1 (stereo not drawn) | -9.87%
CC(NC(=O)COCC(F)(F)F)c1nnc2n1CCCCC2 (stereo not drawn) | -16.3%
O=C(NCCn1ccnc1)N1CCN(Cc2ccco2)CC1 | -3.81%
c1ccc(-n2cc(CN3CCCC3Cn3cccn3)nn2)cc1 (stereo not drawn) | -10.7%
CCc1nc(CN2CCc3c(ncn3C3CC3)C2)cs1 | -17%
CCOc1ccc(C(=O)N2CCCC(n3ccnc3C)C2)cc1OC (stereo not drawn) | -7.46%
CCc1n[nH]c(C2CN(C(=O)c3ncoc3CC)CCO2)n1 (stereo not drawn) | -13.4%
CCOc1ccc(NC(=O)NCc2cccnc2OCC)cc1 | -9.72%
Cn1ccc(C(=O)NCc2ccc(CN3CCCCC3)cc2)cc1=O | -12%
COc1ncccc1CNC(=O)Nc1ccc(N(C)C)nc1 | -12.5%
Cc1noc(C(C)C)c1C(=O)NCCCN1CCCCCC1=O | -7.03%
CN1CCCN(C(=O)NCCOc2ccc3c(c2)OCO3)CC1 | -2.86%
NC(=O)C1CCN(C(=O)NCCOc2ccc3c(c2)OCO3)C1 (stereo not drawn) | -8.31%
CC(=O)N1CCN(CC(C)(O)c2cccc(C(F)(F)F)c2)CC1 (stereo not drawn) | -8.81%
Cc1ccc(OCc2nc(CNCC3CN(C)CCO3)cs2)cc1 (stereo not drawn) | 29.7%
Cc1nc(CN(C)C2CCN(CCc3cccs3)C2)no1 (stereo not drawn) | 23.7%
Cc1cccc(OCCCN2CCC(N(C)Cc3noc(C)n3)C2)c1 (stereo not drawn) | 25.5%
Cc1nc(CN(C)C2CCN(CCCOc3ccc(F)cc3)C2)no1 (stereo not drawn) | 22.2%
Cc1nc(CN(C)C2CCN(CCCOc3ccccc3C)C2)no1 (stereo not drawn) | 0.379%
CCc1nc(CN(C)C2CCN(CCc3cccs3)C2)no1 (stereo not drawn) | -6.05%
O=C(NCC(=O)N1CCC2(CC1)OCCO2)c1ccoc1 | -7.96%
CN1CCC/C1=N\S(=O)(=O)c1ccc(NC(=O)c2ccc(Cl)cc2)cc1 | 1.42%
CN1CCC/C1=N\S(=O)(=O)c1ccc(NC(=O)Cc2cccs2)cc1 | -2.68%

Compound | cytotoxicity at 70.5 h
CC(C)c1cc(NC(=O)CN2CCC(C(N)=O)CC2)on1 | -6.12%
CC(C1CC1)N(C)C(=O)c1ccc(-n2ncc(C#N)c2N)cc1 (stereo not drawn) | -6.01%
Cc1cccc(OCC(O)CN2CCC(Cn3cccn3)CC2)c1 (stereo not drawn) | 22.2%
N#Cc1cnn(-c2ccc(C(=O)N(C3CCCCC3)C3CC3)cc2)c1N | -0.0932%
COCCN(C)C(C)c1cccc(S(N)(=O)=O)c1 (stereo not drawn) | 0.815%
Cc1ccc(OCCN(C)C(C)c2cccc(S(N)(=O)=O)c2)cc1 (stereo not drawn) | 1.1%
O=C(NCC(=O)N1CCCC(c2ccccc2)CC1)c1ccoc1 (stereo not drawn) | 1.06%
CCN(Cc1cccc2c1OCO2)C(=O)NCc1ccccn1 | 13.5%
COc1ccc(Cl)cc1CC(=O)N1CCN(CC(C)O)CC1 (stereo not drawn) | -5.64%
CCc1nc(CN(C)C2CCN(CCOc3ccccc3)C2)no1 (stereo not drawn) | 0.0512%
CNC(=O)C1CCN(CC(=O)Nc2cc(C(C)C)no2)CC1 | -1.42%
COc1c(CNC2CCc3cc(Cl)ccc32)c(C)nn1C (stereo not drawn) | -3.82%
COc1c(CNC2CCc3cc(C)ccc32)c(C)nn1C (stereo not drawn) | -1.11%
CC(C)(C)c1cc(NC(=O)CN2CCCC2Cn2cccn2)on1 (stereo not drawn) | 1.91%
O=C(c1ccc2c(c1)COC2)N1CCCN(Cc2cscn2)CC1 | 1.09%
CN(Cc1noc(C2CC2)n1)C1CCN(CCc2cccs2)C1 (stereo not drawn) | -2.4%
CCN(Cc1cccc2c1OCO2)C(=O)NCCOC | 3.33%
Cc1cc(CN2CCCC(Cn3cncn3)C2)on1 (stereo not drawn) | -3.16%
O=C(c1ccc2cc[nH]c2c1)N1CCCN(Cc2cscn2)CC1 | -2.03%
CCC(O)CN1CCN(C(=O)c2sccc2C(C)C)CC1 (stereo not drawn) | -7.94%
O=S(=O)(CCN1CCCCC1Cn1cncn1)c1ccccc1 (stereo not drawn) | 27.2%
COCCc1noc(CN2CC(n3nc(C)cc3C)C2)n1 | 4.95%
CCCc1noc(CN2CCC(N(C)Cc3nnc(C4CC4)o3)C2)n1 (stereo not drawn) | 4.17%
O=S(=O)(CCCNC1CCc2ncnn2C1)c1ccccc1 (stereo not drawn) | 23.5%
CCCc1nc(C)c(C(=O)NCCN2CCCCC2)s1 | -1.37%
CCN1CCN(CCNC(=O)c2sc(C)nc2C)CC1 | -5.81%

Compound | cytotoxicity at 70.5 h
COCCc1noc(CN2CCOC(Cn3cc(C)cn3)C2)n1 (stereo not drawn) | 0.177%
CCc1nc(C)c(C(=O)NCCN2CCCC2)s1 | -5.7%
Cc1ccccc1CN(C)C(=O)CN1CCOC(Cn2cccn2)C1 (stereo not drawn) | 3.04%
Cc1cc(C)n(CC2CN(Cc3nc(C)c(C)o3)CCO2)n1 (stereo not drawn) | -5.6%
CC(C)COCC(NC(=O)c1cccnc1)c1ccco1 (stereo not drawn) | -9.01%
CC(C)COCC(NC(=O)c1cc[nH]n1)c1ccco1 (stereo not drawn) | 4.11%
Cc1ccc(CNC(=O)NCCCn2nc3ccccn3c2=O)s1 | 30.2%
Cc1cc(C)n(CC2CCCN2CC(=O)N(C)Cc2cnn(C)c2)n1 (stereo not drawn) | -9.95%
Cc1nccn1C1CCCN(C(=O)c2ccc3c(c2)NC(=O)CO3)C1 (stereo not drawn) | -5.24%
Cc1cc(C(=O)N2CCCC2Cn2nc(C)cc2C)on1 (stereo not drawn) | 1.85%
CC(=O)Nc1ccc(S(=O)(=O)NC(=O)CCC2CCCO2)cc1 (stereo not drawn) | 26.4%
O=C(COc1ccc2c(c1)CCC2)N1CCOCC1c1ncon1 (stereo not drawn) | -10.4%
CNS(=O)(=O)c1cccc(CNc2ccc(C(F)(F)F)nn2)c1 | -3.47%
Cc1cccc(NC(=O)NCCCn2nc3ccccn3c2=O)c1C | -8.44%
CC(O)CN1CCC(CNCc2cccc(OC(C)C)c2)CC1 (stereo not drawn) | 47%
CC(O)CN1CCC(CNCc2cccc(Br)c2)CC1 (stereo not drawn) | 24.8%
O=C(c1cccc(OC2CCCC2)c1)N1CCCC(n2cncn2)C1 (stereo not drawn) | 5.3%
CCOc1ncccc1C(=O)N1CCCCC1c1nccs1 (stereo not drawn) | 2.5%
CCc1nccn1C1CCCN(C(=O)c2cnn3ccc(C)nc23)C1 (stereo not drawn) | -9.27%
Cc1cc(C)n(CC2CCCN2Cc2c(C)noc2C)n1 (stereo not drawn) | 34.3%
C1CC(c2noc(C3CC3)n2)CN(Cc2noc(C3CC3)n2)C1 (stereo not drawn) | -7.62%
CCc1noc(CN2CCCC2c2noc(C3CC3)n2)n1 (stereo not drawn) | 1.8%
CCOCC(O)CN1CCN(C(=O)CC(C)C)CC1 (stereo not drawn) | -7.21%
CN(C)C(=O)c1ccc(CNC(=O)NCCN(C)C2CCCC2)cc1 | -13%
CN(CCNC(=O)Nc1ccncc1)C1CCCCC1 | 30.8%
Cc1cc(C)n(CC2CN(Cc3nc(-c4ccoc4)no3)CCO2)n1 (stereo not drawn) | -15.7%

Compound | cytotoxicity at 70.5 h
Cc1nc(C)n(C2CCCN(C(=O)c3csc(C(C)C)n3)C2)n1 (stereo not drawn) | 23.9%
CCc1cccc(OCC(=O)N2CCCC(n3cncn3)C2)c1 (stereo not drawn) | -9.33%
CC(Cn1cccn1)NCc1csc(-c2cccs2)n1 (stereo not drawn) | -26%
Cc1ccc(-c2nc(CN3CCc4nn(C)c(=O)cc4C3)co2)cc1 | -17%
O=C(NCCNc1ncccn1)N1CCSCC1 | -11.7%
O=C1CCc2cc(C(=O)NCc3ccc(-n4cncn4)nc3)ccc2N1 | -0.0283%
O=C(NCCNc1ccccn1)N1CCSCC1 | -5.96%
COc1cc(C)nc(N2CCN(C(=O)c3ccc[nH]3)CC2)n1 | -1.4%
COc1cc(C)nc(N2CCN(C(=O)c3ccc(Cl)o3)CC2)n1 | -7.01%
Cc1nn(C)c(C)c1C1CCCN1CC(=O)Nc1ccncc1 (stereo not drawn) | -7.94%
CN(CCNC(=O)NCc1ccncc1)C1CCCC1 | -18%
Cc1ccc(-c2nc(CN3CCc4nn(C)c(=O)cc4C3)no2)cc1 | -15.2%
Cc1cnn(CCC(=O)N2CCCC(c3cc(C(N)=O)[nH]n3)C2)c1 (stereo not drawn) | -10.9%
CCCOc1cc(CNC(=O)Nc2cccnc2N2CCCC2)ccn1 | -24.2%
c1cnnc(N2CCCC(NCc3cn4ccccc4n3)C2)c1 (stereo not drawn) | 15.8%
c1ccc(-c2nc(CN3CCc4c(ncn4C4CC4)C3)cs2)cc1 | 5.22%
CN(Cc1cn2ccccc2n1)C1CCCN(c2cccnn2)C1 (stereo not drawn) | 12.5%
Cc1ccc(-c2nc(CNCC3CN(C)CCO3)cs2)o1 (stereo not drawn) | 18.6%
CS(=O)(=O)NCC1CCCN(C(=O)c2ccc(Cl)o2)C1 (stereo not drawn) | -8.13%
CS(=O)(=O)NCC1CCCN(C(=O)c2cc3ccccc3o2)C1 (stereo not drawn) | -3.7%
O=C(NCCOc1ccc2c(c1)OCO2)N1CCC1 | -12.5%
Cc1nn(C)c(N(C)C)c1CNC1CCc2cc(F)ccc21 (stereo not drawn) | -4.67%
COc1cc(CNC2CCCc3c2cnn3C)cc(OC)c1 (stereo not drawn) | -16.8%
c1cnc(N2CCCC(NCc3cccc4c3OCCO4)C2)nc1 (stereo not drawn) | 3.71%
Cc1nn(C)c(N2CCOCC2)c1CNC1CCc2cc(F)ccc21 (stereo not drawn) | -19.2%
